Reference: patent US12473303B2, “4-[[(7-aminopyrazolo[1,5-a]pyrimidin-5-yl)amino methyl]piperidin-3-ol compounds and their therapeutic use” (CARRICK THERAPEUTICS LIMITED, priority 2019, dated 2025)
pIC50: −log10 of the molar value. Where two headings read alike, the source gives them in different places.

Key:
[1] = target: Human CDK12 wt/CycK (Homo sapiens (Human), UniProt Q9NYV4); assay: Radiometric protein kinase assay (33PanQinase Activity Assay), CDK12; assay type: biochemical; conditions: for CDK7/CDK12: ratio greater than 1 indicated selectivity for CDK12
Experimental: (§1) A radiometric protein kinase assay (^33PanQinase® Activity Assay) was used for measuring the kinase activity of the two protein kinases (CDK12/CDK7). All kinase assays were performed in 96-well FlashPlates™ from PerkinElmer (Boston, MA, USA) in a 50 μL reaction volume.
(§2) The reaction cocktail was pipetted in four steps in the following order: • 20 μL of assay buffer (standard buffer) • 5 μL of ATP solution (in H2O) • 5 μL of test compound (in 10% DMSO) • 10 μL of substrate/10 μL of enzyme solution (premixed)
(§3) The reaction mixture was incubated at 30° C. for 60 min and then stopped by the addition of 2% (v/v) H3PO4. Plates were aspirated and washed two times with 200 μL 0.9% (w/v) NaCl. Incorporation of ^33Pi was determined with a microplate scintillation count (Microbeta, Wallac).
(§4) The fitting method used was a least-squares fit.

[2] = tested on: A673 cells; assay: Cellular potency in A673 cells; assay type: cell-based; conditions: for IC50: Homo sapiens, A673, Table 3, A673 cells; for Ratio of Biochemical Potency: Cellular Potency: Table 3, ratio >0.9 is an indicator of Cyclin K degradation
[3] = target: Human CDK7/CycH/MAT1 (Homo sapiens (Human), UniProt P50613); assay: Radiometric protein kinase assay (33PanQinase Activity Assay), CDK7; assay type: biochemical; conditions: Table 1; ATP 3 μM
Experimental: as §1, §2, §3, §4

[4] = Table 1, ATP 0.3 μM, read-out: CDK12 IC50
[5] = Table 3, CDK12 kinase activity, read-out: Biochemical Potency IC50

Chain of Human CDK7/CycH/MAT1 (P50613 whole entry): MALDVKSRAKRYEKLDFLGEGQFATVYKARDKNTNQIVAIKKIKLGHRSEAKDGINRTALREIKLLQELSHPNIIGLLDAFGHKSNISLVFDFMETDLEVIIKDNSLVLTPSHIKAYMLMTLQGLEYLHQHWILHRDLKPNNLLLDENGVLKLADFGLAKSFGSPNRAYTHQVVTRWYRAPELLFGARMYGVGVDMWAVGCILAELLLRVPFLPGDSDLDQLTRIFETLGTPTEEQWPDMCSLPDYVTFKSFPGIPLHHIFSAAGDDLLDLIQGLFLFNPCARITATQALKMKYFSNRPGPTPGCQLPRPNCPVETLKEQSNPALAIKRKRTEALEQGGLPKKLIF
Chain of Human CDK7/CycH/MAT1 (P51946 whole entry partner): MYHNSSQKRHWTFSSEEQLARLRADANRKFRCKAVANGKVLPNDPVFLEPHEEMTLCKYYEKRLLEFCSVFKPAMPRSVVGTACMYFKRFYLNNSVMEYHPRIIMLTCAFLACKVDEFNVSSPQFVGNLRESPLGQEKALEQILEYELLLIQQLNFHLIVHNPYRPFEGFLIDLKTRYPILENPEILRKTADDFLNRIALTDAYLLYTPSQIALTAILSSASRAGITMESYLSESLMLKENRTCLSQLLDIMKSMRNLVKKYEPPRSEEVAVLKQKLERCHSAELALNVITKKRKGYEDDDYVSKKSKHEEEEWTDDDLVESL
Chain of Human CDK7/CycH/MAT1 (P51948 whole entry partner): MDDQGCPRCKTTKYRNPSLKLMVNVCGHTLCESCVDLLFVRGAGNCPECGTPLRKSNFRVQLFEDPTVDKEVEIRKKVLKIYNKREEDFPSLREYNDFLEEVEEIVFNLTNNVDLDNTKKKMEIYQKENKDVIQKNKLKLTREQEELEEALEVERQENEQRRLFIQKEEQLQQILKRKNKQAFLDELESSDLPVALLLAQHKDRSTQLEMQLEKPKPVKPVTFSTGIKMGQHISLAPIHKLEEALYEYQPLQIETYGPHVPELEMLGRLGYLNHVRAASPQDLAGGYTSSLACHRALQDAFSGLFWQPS
Chain of Human CDK12 wt/CycK (Q9NYV4 whole entry): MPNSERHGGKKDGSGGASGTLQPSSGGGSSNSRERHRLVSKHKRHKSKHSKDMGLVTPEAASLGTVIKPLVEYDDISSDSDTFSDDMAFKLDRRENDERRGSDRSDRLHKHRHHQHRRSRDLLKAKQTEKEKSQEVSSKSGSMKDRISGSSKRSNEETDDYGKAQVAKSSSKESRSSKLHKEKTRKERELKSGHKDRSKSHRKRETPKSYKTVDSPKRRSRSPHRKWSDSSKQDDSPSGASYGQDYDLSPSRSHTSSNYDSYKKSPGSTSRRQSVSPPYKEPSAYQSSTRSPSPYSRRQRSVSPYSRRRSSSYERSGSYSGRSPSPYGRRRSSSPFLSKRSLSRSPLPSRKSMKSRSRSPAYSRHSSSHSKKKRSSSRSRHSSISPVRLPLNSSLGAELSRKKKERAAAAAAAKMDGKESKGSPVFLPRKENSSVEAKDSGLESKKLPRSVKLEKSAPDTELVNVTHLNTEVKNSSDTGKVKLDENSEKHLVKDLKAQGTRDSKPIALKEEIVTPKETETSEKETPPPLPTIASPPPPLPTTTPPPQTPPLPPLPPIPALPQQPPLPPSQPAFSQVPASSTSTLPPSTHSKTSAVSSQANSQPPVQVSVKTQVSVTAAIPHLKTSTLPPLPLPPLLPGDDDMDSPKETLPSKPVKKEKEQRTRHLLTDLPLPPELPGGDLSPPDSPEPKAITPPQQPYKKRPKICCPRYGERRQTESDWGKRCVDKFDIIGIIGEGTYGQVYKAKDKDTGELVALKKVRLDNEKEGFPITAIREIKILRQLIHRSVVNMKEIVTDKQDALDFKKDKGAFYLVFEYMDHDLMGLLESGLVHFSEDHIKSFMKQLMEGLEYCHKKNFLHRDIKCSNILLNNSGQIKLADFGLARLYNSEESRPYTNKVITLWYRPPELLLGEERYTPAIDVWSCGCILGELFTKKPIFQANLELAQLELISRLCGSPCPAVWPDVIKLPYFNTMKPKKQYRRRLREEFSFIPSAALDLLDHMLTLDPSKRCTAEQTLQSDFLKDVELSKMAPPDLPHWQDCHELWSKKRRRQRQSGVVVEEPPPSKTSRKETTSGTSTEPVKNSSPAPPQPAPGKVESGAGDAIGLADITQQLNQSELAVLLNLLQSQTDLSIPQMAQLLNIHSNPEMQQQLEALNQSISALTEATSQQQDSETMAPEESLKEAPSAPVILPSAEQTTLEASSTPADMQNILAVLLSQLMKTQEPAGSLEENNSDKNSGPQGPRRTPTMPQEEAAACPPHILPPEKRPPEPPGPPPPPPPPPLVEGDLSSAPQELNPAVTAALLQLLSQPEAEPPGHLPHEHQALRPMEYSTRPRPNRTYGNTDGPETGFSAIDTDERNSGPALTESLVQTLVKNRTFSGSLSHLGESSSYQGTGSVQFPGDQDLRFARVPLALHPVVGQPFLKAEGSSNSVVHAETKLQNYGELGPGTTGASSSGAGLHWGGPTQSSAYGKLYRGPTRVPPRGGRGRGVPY
Chain of Human CDK12 wt/CycK (O75909 whole entry partner): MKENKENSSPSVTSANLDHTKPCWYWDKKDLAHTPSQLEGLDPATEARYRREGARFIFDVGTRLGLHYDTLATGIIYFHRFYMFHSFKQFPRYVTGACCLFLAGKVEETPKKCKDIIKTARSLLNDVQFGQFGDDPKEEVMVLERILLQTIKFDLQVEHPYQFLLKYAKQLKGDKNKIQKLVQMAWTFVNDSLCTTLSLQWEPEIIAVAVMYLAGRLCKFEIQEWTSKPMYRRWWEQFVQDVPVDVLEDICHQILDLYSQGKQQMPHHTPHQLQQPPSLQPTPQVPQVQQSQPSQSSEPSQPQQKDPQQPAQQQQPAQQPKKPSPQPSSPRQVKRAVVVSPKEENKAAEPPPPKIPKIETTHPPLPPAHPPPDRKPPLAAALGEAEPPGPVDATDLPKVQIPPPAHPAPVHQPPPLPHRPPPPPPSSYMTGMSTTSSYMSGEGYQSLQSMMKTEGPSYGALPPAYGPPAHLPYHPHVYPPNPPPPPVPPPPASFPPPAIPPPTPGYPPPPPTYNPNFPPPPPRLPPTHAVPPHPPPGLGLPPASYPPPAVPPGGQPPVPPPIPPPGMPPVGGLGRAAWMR

## CC(C)c1cnn2c(NCc3cnc4ccccc4c3)cc(NC[C@H]3CCNC[C@@H]3O)nc12 [H-APPAMP-021, (3R,4R)-4-(((3-isopropyl-7-((quinolin-3-ylmethyl)amino)pyrazolo[1,5-a]pyrimidin-5-yl)amino)methyl)piperidin-3-ol]
[1]; [4]
  pIC50: 6.78
[1]; Table 1
  CDK7/CDK12: 0.2
[1]; [5]
  pIC50: 6.78
[2]
  IC50: 2.7 nM
  Ratio of Biochemical Potency: Cellular Potency: 62
[3]
  pIC50: 7.55

## Cc1cccn2cc(CNc3cc(NC[C@H]4CCNC[C@@H]4O)nc4c(C5CC5)cnn34)nc12 [H-APPAMP-022, (3R,4R)-4-(((3-cyclopropyl-7-(((8-methylimidazo[1,2-a]pyridin-2-yl)methyl)amino)pyrazolo[1,5-a]pyrimidin-5-yl)amino)methyl)piperidin-3-ol]
[1]; [4]
  pIC50: 6.79
[1]; Table 1
  CDK7/CDK12: 3.8
[1]; [5]
  pIC50: 6.79
[2]
  IC50: 10.3 nM
  Ratio of Biochemical Potency: Cellular Potency: 16
[3]
  pIC50: 6.21

## CC(C)c1cnn2c(NCc3nc4ccccn4c3C(F)(F)F)cc(NC[C@H]3CCNC[C@@H]3O)nc12 [H-APPAMP-023, (3R,4R)-4-(((3-isopropyl-7-(((3-(trifluoromethyl)imidazo[1,2-a]pyridin-2-yl)methyl)amino)pyrazolo[1,5-a]pyrimidin-5-yl)amino)methyl)piperidin-3-ol]
[1]; [4]
  pIC50: 6.15
[1]; Table 1
  CDK7/CDK12: 0.1
[1]; [5]
  pIC50: 6.15
[2]
  IC50: 296 nM
  Ratio of Biochemical Potency: Cellular Potency: 2.4
[3]
  pIC50: 6.99

## CC(C)c1cnn2c(NCc3nc4ccccn4c3C3CC3)cc(NC[C@H]3CCNC[C@@H]3O)nc12 [H-APPAMP-024, (3R,4R)-4-(((7-(((3-cyclopropylimidazo[1,2-a]pyridin-2-yl)methyl)amino)-3-isopropylpyrazolo[1,5-a]pyrimidin-5-yl)amino)methyl)piperidin-3-ol]
[1]; [4]
  pIC50: 7.03
[1]; Table 1
  CDK7/CDK12: 3.0
[1]; [5]
  pIC50: 7.03
[2]
  IC50: 19.8 nM
  Ratio of Biochemical Potency: Cellular Potency: 4.7
[3]
  pIC50: 6.55

## CCc1cnn2c(NCc3cn4cccc(C)c4n3)cc(NC[C@H]3CCNC[C@@H]3O)nc12 [H-APPAMP-026, (3R,4R)-4-(((3-ethyl-7-(((8-methylimidazo[1,2-a]pyridin-2-yl)methyl)amino)pyrazolo[1,5-a]pyrimidin-5-yl)amino)methyl)piperidin-3-ol]
[1]; [4]
  pIC50: 7.51
[1]; Table 1
  CDK7/CDK12: 2.2
[1]; [5]
  pIC50: 7.51
[2]
  IC50: 2.5 nM
  Ratio of Biochemical Potency: Cellular Potency: 12
[3]
  pIC50: 7.16

## COc1cccc2nc(CNc3cc(NC[C@H]4CCNC[C@@H]4O)nc4c(C5CC5)cnn34)cn12 [H-APPAMP-027, (3R,4R)-4-(((3-cyclopropyl-7-(((5-methoxyimidazo[1,2-a]pyridin-2-yl)methyl)amino)pyrazolo[1,5-a]pyrimidin-5-yl)amino)methyl)piperidin-3-ol]
[1]; [4]
  pIC50: 7.55
[1]; Table 1
  CDK7/CDK12: 4.5
[1]; [5]
  pIC50: 7.55
[2]
  IC50: 1.6 nM
  Ratio of Biochemical Potency: Cellular Potency: 18
[3]
  pIC50: 6.90

## O[C@H]1CNCC[C@@H]1CNc1cc(NCc2cn3nc(C4CC4)ccc3n2)n2ncc(C3CC3)c2n1 [H-APPAMP-028, (3R,4R)-4-(((3-cyclopropyl-7-(((6-cyclopropylimidazo[1,2-b]pyridazin-2-yl)methyl)amino)pyrazolo[1,5-a]pyrimidin-5-yl)amino)methyl)piperidin-3-ol]
[1]; [4]
  pIC50: 7.43
[1]; Table 1
  CDK7/CDK12: 1.8
[1]; [5]
  pIC50: 7.43
[2]
  IC50: 13.1 nM
  Ratio of Biochemical Potency: Cellular Potency: 2.8
[3]
  pIC50: 7.17

## Cc1cccn2cc(CNc3cc(NC[C@H]4CCNC[C@@H]4O)nc4c(C5CCC5)cnn34)nc12 [H-APPAMP-029, (3R,4R)-4-(((3-cyclobutyl-7-(((8-methylimidazo[1,2-a]pyridin-2-yl)methyl)amino)pyrazolo[1,5-a]pyrimidin-5-yl)amino)methyl)piperidin-3-ol]
[1]; [4]
  pIC50: 7.19
[1]; Table 1
  CDK7/CDK12: 3.0
[1]; [5]
  pIC50: 7.19
[2]
  IC50: 18.5 nM
  Ratio of Biochemical Potency: Cellular Potency: 3.5
[3]
  pIC50: 6.71

## O[C@H]1CNCC[C@@H]1CNc1cc(NCc2cn3c(C4CC4)cccc3n2)n2ncc(C3CC3)c2n1 [H-APPAMP-030, (3R,4R)-4-(((3-cyclopropyl-7-(((5-cyclopropylimidazo[1,2-a]pyridin-2-yl)methyl)amino)pyrazolo[1,5-a]pyrimidin-5-yl)amino)methyl)piperidin-3-ol]
[1]; [4]
  pIC50: 7.12
[1]; Table 1
  CDK7/CDK12: 3.7
[1]; [5]
  pIC50: 7.12
[2]
  IC50: 8.7 nM
  Ratio of Biochemical Potency: Cellular Potency: 8.6
[3]
  pIC50: 6.56

## CCc1cnn2c(NCc3cn4c(C)cccc4n3)cc(NC[C@H]3CCNC[C@@H]3O)nc12 [H-APPAMP-031, (3R,4R)-4-(((3-ethyl-7-(((5-methylimidazo[1,2-a]pyridin-2-yl)methyl)amino)pyrazolo[1,5-a]pyrimidin-5-yl)amino)methyl)piperidin-3-ol]
[1]; [4]
  pIC50: 7.62
[1]; Table 1
  CDK7/CDK12: 38.3
[1]; [5]
  pIC50: 7.62
[2]
  IC50: 2.2 nM
  Ratio of Biochemical Potency: Cellular Potency: 11
[3]
  pIC50: 6.04

## Cc1cc(C)n2cc(CNc3cc(NC[C@H]4CCNC[C@@H]4O)nc4c(C5CC5)cnn34)nc2c1 [H-APPAMP-032, (3R,4R)-4-(((3-cyclopropyl-7-(((5,7-dimethylimidazo[1,2-a]pyridin-2-yl)methyl)amino)pyrazolo[1,5-a]pyrimidin-5-yl)amino)methyl)piperidin-3-ol]
[1]; [4]
  pIC50: 7.35
[1]; Table 1
  CDK7/CDK12: 19.1
[1]; [5]
  pIC50: 7.35
[2]
  IC50: 6.1 nM
  Ratio of Biochemical Potency: Cellular Potency: 7.4
[3]
  pIC50: 6.07

## O[C@H]1CNCC[C@@H]1CNc1cc(NCc2cn3cc(C(F)(F)F)cc(Cl)c3n2)n2ncc(C3CC3)c2n1 [H-APPAMP-033, (3R,4R)-4-(((7-(((8-chloro-6-(trifluoromethyl)imidazo[1,2-a]pyridin-2-yl)methyl)amino)-3-cyclopropylpyrazolo[1,5-a]pyrimidin-5-yl)amino)methyl)piperidin-3-ol]
[1]; [4]
  pIC50: 7.21
[1]; Table 1
  CDK7/CDK12: 17.1
[1]; [5]
  pIC50: 7.21
[2]
  IC50: 5.7 nM
  Ratio of Biochemical Potency: Cellular Potency: 11
[3]
  pIC50: 5.97

## CCc1cnn2c(NCc3cn4c(C(F)(F)F)cccc4n3)cc(NC[C@H]3CCNC[C@@H]3O)nc12 [H-APPAMP-034, (3R,4R)-4-(((3-ethyl-7-(((5-(trifluoromethyl)imidazo[1,2-a]pyridin-2-yl)methyl)amino)pyrazolo[1,5-a]pyrimidin-5-yl)amino)methyl)piperidin-3-ol]
[1]; [4]
  pIC50: 6.76
[1]; Table 1
  CDK7/CDK12: 0.9
[1]; [5]
  pIC50: 6.76
[2]
  IC50: 12.1 nM
  Ratio of Biochemical Potency: Cellular Potency: 14
[3]
  pIC50: 6.82

## O[C@H]1CNCC[C@@H]1CNc1cc(NCc2cn3ccc(C(F)(F)F)cc3n2)n2ncc(C3CC3)c2n1 [H-APPAMP-035, (3R,4R)-4-(((3-cyclopropyl-7-(((7-(trifluoromethyl)imidazo[1,2-a]pyridin-2-yl)methyl)amino)pyrazolo[1,5-a]pyrimidin-5-yl)amino)methyl)piperidin-3-ol]
[1]; [4]
  pIC50: 7.36
[1]; Table 1
  CDK7/CDK12: 29.3
[1]; [5]
  pIC50: 7.36
[2]
  IC50: 17.3 nM
  Ratio of Biochemical Potency: Cellular Potency: 2.5
[3]
  pIC50: 5.89

## Cn1c(CNc2cc(NC[C@H]3CCNC[C@@H]3O)nc3c(C4CC4)cnn23)nc2cc(F)c(F)cc21 [H-APPAMP-036, (3R,4R)-4-(((3-cyclopropyl-7-(((5,6-difluoro-1-methyl-1H-benzo[d]imidazol-2-yl)methyl)amino)pyrazolo[1,5-a]pyrimidin-5-yl)amino)methyl)piperidin-3-ol]
[1]; [4]
  pIC50: 6.54
[1]; Table 1
  CDK7/CDK12: 4.0
[1]; [5]
  pIC50: 6.54
[2]
  IC50: 10.4 nM
  Ratio of Biochemical Potency: Cellular Potency: 28
[3]
  pIC50: 5.94

## O[C@H]1CNCC[C@@H]1CNc1cc(NCc2cn3c(C(F)(F)F)cccc3n2)n2ncc(C3CC3)c2n1 [H-APPAMP-037, (3R,4R)-4-(((3-cyclopropyl-7-(((5-(trifluoromethyl)imidazo[1,2-a]pyridin-2-yl)methyl)amino)pyrazolo[1,5-a]pyrimidin-5-yl)amino)methyl)piperidin-3-ol]
[1]; [4]
  pIC50: 6.68
[1]; Table 1
  CDK7/CDK12: 3.1
[1]; [5]
  pIC50: 6.68
[2]
  IC50: 18.1 nM
  Ratio of Biochemical Potency: Cellular Potency: 11
[3]
  pIC50: 6.19

## CCc1cnn2c(NCc3cn4cc(C5CC5)cc(C(F)(F)F)c4n3)cc(NC[C@H]3CCNC[C@@H]3O)nc12 [H-APPAMP-038, (3R,4R)-4-(((7-(((6-cyclopropyl-8-(trifluoromethyl)imidazo[1,2-a]pyridin-2-yl)methyl)amino)-3-ethylpyrazolo[1,5-a]pyrimidin-5-yl)amino)methyl)piperidin-3-ol]
[1]; [4]
  pIC50: 7.00
[1]; Table 1
  CDK7/CDK12: 7.6
[1]; [5]
  pIC50: 7.00
[2]
  IC50: 4.6 nM
  Ratio of Biochemical Potency: Cellular Potency: 22
[3]
  pIC50: 6.12

## Cc1cc(C(F)(F)F)cc2nc(CNc3cc(NC[C@H]4CCNC[C@@H]4O)nc4c(C5CC5)cnn34)cn12 [H-APPAMP-039, (3R,4R)-4-(((3-cyclopropyl-7-(((5-methyl-7-(trifluoromethyl)imidazo[1,2-a]pyridin-2-yl)methyl)amino)pyrazolo[1,5-a]pyrimidin-5-yl)amino)methyl)piperidin-3-ol]
[1]; [4]
  pIC50: 7.32
[1]; Table 1
  CDK7/CDK12: 38.1
[1]; [5]
  pIC50: 7.32
[2]
  IC50: 4 nM
  Ratio of Biochemical Potency: Cellular Potency: 12
[3]
  pIC50: 5.74
